Columns and labels:
[1] = tested on: primary hippocampal neurons; assay: Dendritic spine density in transfected primary hippocampal neurons; type: cell-based, Sprague-Dawley rats; settings: 5 μM
Method: Primary neuron culture and immunostaining. Primary hippocampal neurons from E19 Sprague-Dawley rats were cultured at 150 cells/mm^2 as previously described (Pak et al., 2001). Neurons were transfected using Lipofectamine™ 2000 (Invitrogen, Carlsbad, Calif., USA) or calcium phosphate precipitation with GFP+PLL, GFP+APP shRNA, or GFP+APP and treated with BTA-EG4. The following antibodies were used: mouse anti-GFP (Novus Biologicals, 9F9.F9), rabbit anti-GFP (Invitrogen, A11122), rabbit anti-GluR1 (Calbiochem, PC246), mouse anti-GluR2 (BD Pharmagen, 556341), mouse anti-postsynaptic density (PSD)-95 (NeuroMabs, Davis, Calif., USA), mouse anti-Synaptophysin (Sigma Aldrich, s5768), rabbit APP N-terminal (Sigma-Aldrich, A8967), anti-Ras (BD Biosciences, 610001), anti-RasGRF1 (Santa Cruz, C-20; BD Biosciences, 610149), anti-ERK1/2 (Cell Signaling, 4695), anti-p-ERK1/2 (Invitrogen, 36880), anti-CREB (Cell Signaling, D76D11), anti-p-CREB (Millipore, 06-519), and mouse anti-c-Myc (Novus Biologicals, 9E10). Cultured hippocampal neuron images were acquired by LSM 510 laser scanning confocal microscope (Zeiss). Confocal zseries image stacks encompassing entire dendrite segments were analyzed using MetaMorph software (Universal Imaging Corporation, Downington, Pa., USA).
To examine whether BTA-EG4 acts through APP to increase dendritic spine density, we acutely knocked down APP using shRNA in primary hippocampal neurons. APP shRNA was cotransfected with GFP to visualize dendritic spines, and control cultures were transfected with GFP and PLL (control vector for shRNA construct). We then treated both cultures with BTA-EG4 (5 μM) or vehicle. […] To confirm this finding in vivo, we examined the effect of BTA-EG4 on dendritic spine density in APP knockout (KO) mice. APP-KO mice were injected with BTA-EG4 (30 mg/kg) or vehicle for 2 weeks, and Golgi analysis was conducted on hippocampal CA1 neurons.
To examine whether the effect of BTA-EG4 on dendritic spine formation is Ras dependent, primary hippocampal neurons were transfected with GFP and RasGRF1 shRNA, or GFP and PLL. After 24 h, we treated with BTA-EG4 (5 μM) or control for another 24 h, and spine density was measured using immunofluorescence. […] After 24 h, we then treated neurons with BTA-EG4 (5 μM) or control for 24 h, and spine density was measured. Ras-WT alone or combined with BTA-EG4 increased dendritic spine density compared with control (FIGS. 7K, 7L).

Aβ = Aβ ELISA, conditioned media of primary cortical neurons; type: cell-based; settings: 1 or 5 μM, 24 h, vs control (10% DMSO)
Method: Aβ ELISA. Mouse brains were homogenized in tissue homogenization buffer containing 250 mM sucrose, 20 mM Tris base, protease, and phosphatase inhibitors. To measure soluble Aβ, DEA extraction was performed. Crude 10% homogenate was mixed with an equal volume of 0.4% diethylamine (DEA), sonicated, and ultracentrifuged for 1 hr at 100,000×g. The supernatant was collected and neutralized with 10% 0.5 M Tris, pH 6.8. Sensitive and specific ELISAs to rodent Aβ1-40 was purchased from IBL Transatlantic (Toronto, Canada) and conducted per the manufacturer's protocol.
To test whether BTA-EG4 alters Aβ production in vitro, primary cortical neurons were treated with BTA-EG4 (1 or 5 μM) or control (10% DMSO), and Aβ levels were measured using ELISA. […] We then examined whether BTA-EG4 can alter Aβ levels in vivo by injecting wild-type mice daily for 2 weeks with BTA-EG4 (15 or 30 mg/kg, 10% DMSO in saline, i.p.). […] Furthermore, BTA-EG4 altered APP processing in vivo, as monitored by increased sAPPα (α-secretase cleavage product) and decreased sAPPβ (β-secretase cleavage product) levels in BTA-EG4 injected wild-type mice (30 mg/kg, i.p) compared to control-injected mice (FIGS. 1E, 1F).

[2] = Morris Water Maze, 3× Tg AD mice; type: in vivo; settings: for escape latency during training trials: 30 mg/kg daily, 2 weeks
Method: Morris Water Maze. To examine the effects of BTA-EG4 on learning and memory, we injected 2-3 month old, 6-10 month old, and 13-16 month old 3× Tg AD mice daily (i.p.) for 2 weeks before beginning behavioral testing as described previously (Minami et al., 2012). The control groupw as treated with vehicle solution (10% DMSO) while the experimental group was treated with BTA-EG4 (30 mg/kg) daily for 2 weeks. Animals were kept on a fixed 12 hour light-dark cycle, and behavioral experiments were conducted during the light portion of this cycle. Specifically, experiments began at 9:30 AM and concluded before 4:00 PM. Briefly, the amount of time required for animals to locate a Plexiglas platform submerged in opaque water was measured in a large circular pool. The animal was randomly placed into one of four quadrants separated by 90°, and the platform was hidden in one of these quadrants (14 in. from the wall). TOPSCAN software tracked the time required (latency, limited to 60 s) to locate the hidden platform, and animals failing to locate the platform within 60 s were gently guided to the platform. On the first trial, animals were allowed to remain on the platform for 15 s. All subsequent trials limited platform time to 10 s, and a probe trial (60 s) was administered 24 h after the final learning trial. Time spent in the quadrant where the platform was previously located and number of platform crossings were recorded during this probe trial. As a control, 12 h after the last trial, animals were required to locate a clearly visible black platform placed in a new location.

In the case of BTA-EG4, the dendritic spine density ([1]; 24 h, GFP and PLL control vector) is reported as “significantly increased”, the dendritic spine density ([1]; 24 h, RasGRF1 knockdown) is reported as “prevented the effect” and the dendritic spine density ([1]; 24 h, combined with Ras-WT, vs control) is reported as “increased”. The dendritic spine density ([1]; 24 h, in the presence of RasN17) was “could no longer increase”, the dendritic spine density ([1]; knockdown of APP (APP shRNA)) was “prevented the increase” and the Aβ protein levels (Aβ) was “significantly decreased”. The swim speed ([2]; 2-3 months) was “without differing”, the “escape latency during training trials” value ([2]; 2-3 months) was “significantly faster” and the “percentage of time in the target quadrant” value ([2]; 2-3 months, probe trials) was “greater percentage”. The platform crossings ([2]; 2-3 months, probe trials) was “more platform crossings”, the “escape latency during training trials” value ([2]; 6-10 months) was “faster” and the “number of platform crossings” value ([2]; 6-10 months, probe trials) was “without changes”. The “percentage of time spent in the target quadrant” value ([2]; 6-10 months, probe trials) was “significantly improved” and the “measured Morris Water Maze parameters (escape latency, swim speed, target quadrant time, platform crossings)” value ([2]; 13-16 months) was “none of the measured parameters were significantly altered”.

From US20160000762A1, “IMPROVING COGNITIVE FUNCTION” (THE REGENTS OF THE UNIVERSITY OF CALIFORNIA, priority 2013, published 2016)
